# According to ChEMBL document CHEMBL5233278, “Recent Advances in the Medicinal Chemistry of Farnesoid X Receptor” (J Med Chem, 2021):
# How the values were obtained:
# [1] = target: T1, Bile acid receptor (Homo sapiens, UniProt Q96RI1); assay: Agonist activity at human FXR incubated for 24 hrs by luciferase reporter assay
# T1 sequence (Q96RI1 whole entry): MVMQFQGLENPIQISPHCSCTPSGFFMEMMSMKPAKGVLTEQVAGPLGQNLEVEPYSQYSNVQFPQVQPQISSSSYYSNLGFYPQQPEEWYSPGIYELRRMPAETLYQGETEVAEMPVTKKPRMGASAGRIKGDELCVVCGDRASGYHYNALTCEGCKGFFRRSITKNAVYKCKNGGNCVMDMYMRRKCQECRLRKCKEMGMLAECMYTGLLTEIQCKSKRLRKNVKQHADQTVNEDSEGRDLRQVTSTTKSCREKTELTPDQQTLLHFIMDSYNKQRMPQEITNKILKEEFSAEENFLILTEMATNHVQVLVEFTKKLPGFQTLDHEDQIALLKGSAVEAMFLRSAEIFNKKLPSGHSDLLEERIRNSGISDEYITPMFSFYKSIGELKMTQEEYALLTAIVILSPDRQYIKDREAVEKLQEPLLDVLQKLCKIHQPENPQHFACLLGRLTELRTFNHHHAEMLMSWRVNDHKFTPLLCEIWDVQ
# [2] = target: T1, Bile acid receptor; assay: Agonist activity at human FXR
# [3] = Oral bioavailability in Sprague-Dawley rat at 5 mg/kg administered via gavage by LC-MS/MS analysis; format: ADME, organism-based; settings: in vivo
# [4] = target: T2, Bile acid receptor (Homo sapiens) (UniProt Q96RI1); assay: Agonist activity at human FXR expressed in CHO cells assessed as maximum efficacy incubated for 22 hrs by luciferase reporter assay relative to control; format: cell-based
# T2 sequence (whole entry): T1 sequence (Q96RI1 whole entry)
# [5] = target: T1, Bile acid receptor; assay: Agonist activity at FXR (unknown origin)
# [6] = Metabolic stability in human liver microsomes assessed as half life in presence of NADPH incubated up to 60 mins by LC-MS/MS analysis; format: ADME, Microsome
# [7] = target: Voltage-gated inwardly rectifying potassium channel KCNH2 (Homo sapiens, UniProt Q12809); assay: Inhibition of hERG; format: toxicity
# [8] = target: T1, Bile acid receptor; assay: Agonist activity at FXR in human HeLa cells by Dual-Glo luciferase assay; format: cell-based
# [9] = target: T1, Bile acid receptor; assay: Agonist activity at FXR in human HeLa cells incubated for 24 hrs by Dual-Glo luciferase assay; format: cell-based; settings: hela
# [10] = target: T3, Bifunctional epoxide hydrolase 2 (Homo sapiens, UniProt P34913); assay: Inhibition of sEH (unknown origin)
# T3 sequence (P34913 whole entry): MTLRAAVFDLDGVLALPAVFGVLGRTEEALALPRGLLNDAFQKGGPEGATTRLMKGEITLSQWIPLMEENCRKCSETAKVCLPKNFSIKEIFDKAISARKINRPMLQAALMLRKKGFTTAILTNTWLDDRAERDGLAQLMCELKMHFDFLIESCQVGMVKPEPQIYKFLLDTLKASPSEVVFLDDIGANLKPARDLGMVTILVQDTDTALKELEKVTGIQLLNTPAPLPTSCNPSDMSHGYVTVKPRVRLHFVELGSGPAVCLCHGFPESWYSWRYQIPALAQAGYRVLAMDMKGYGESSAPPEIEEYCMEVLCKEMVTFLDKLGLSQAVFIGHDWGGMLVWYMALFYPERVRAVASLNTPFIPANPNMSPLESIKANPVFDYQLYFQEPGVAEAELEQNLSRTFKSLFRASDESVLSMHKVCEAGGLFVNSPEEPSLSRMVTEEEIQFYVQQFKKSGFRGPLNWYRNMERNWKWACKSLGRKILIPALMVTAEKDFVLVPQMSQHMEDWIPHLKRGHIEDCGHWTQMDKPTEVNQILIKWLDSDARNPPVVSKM
# [11] = target: Bile acid receptor (Homo sapiens) (UniProt Q96RI1); assay: Agonist activity at FXR in human HepG2 cells coexpressing BSEP at 0.3 uM relative to control; settings: filed as agonist
# [12] = target: Bile acid receptor (Homo sapiens) (UniProt Q96RI1); assay: Agonist activity at FXR in human HepG2 cells at 3 uM relative to control; settings: filed as agonist
# [13] = target: T1, Bile acid receptor; assay: Agonist activity at FXR (unknown origin) incubated for 180 mins by TR-FRET assay
# [14] = target: T1, Bile acid receptor; assay: Agonist activity at human GST-tagged FXR incubated for 1 hrs by alphascreen assay
# [15] = target: T1, Bile acid receptor; assay: Agonist activity at FXR in HEK293T cells by steady-glo luciferase assay; format: cell-based
# Voltage-gated inwardly rectifying potassium channel KCNH2, sequence (Q12809 whole entry): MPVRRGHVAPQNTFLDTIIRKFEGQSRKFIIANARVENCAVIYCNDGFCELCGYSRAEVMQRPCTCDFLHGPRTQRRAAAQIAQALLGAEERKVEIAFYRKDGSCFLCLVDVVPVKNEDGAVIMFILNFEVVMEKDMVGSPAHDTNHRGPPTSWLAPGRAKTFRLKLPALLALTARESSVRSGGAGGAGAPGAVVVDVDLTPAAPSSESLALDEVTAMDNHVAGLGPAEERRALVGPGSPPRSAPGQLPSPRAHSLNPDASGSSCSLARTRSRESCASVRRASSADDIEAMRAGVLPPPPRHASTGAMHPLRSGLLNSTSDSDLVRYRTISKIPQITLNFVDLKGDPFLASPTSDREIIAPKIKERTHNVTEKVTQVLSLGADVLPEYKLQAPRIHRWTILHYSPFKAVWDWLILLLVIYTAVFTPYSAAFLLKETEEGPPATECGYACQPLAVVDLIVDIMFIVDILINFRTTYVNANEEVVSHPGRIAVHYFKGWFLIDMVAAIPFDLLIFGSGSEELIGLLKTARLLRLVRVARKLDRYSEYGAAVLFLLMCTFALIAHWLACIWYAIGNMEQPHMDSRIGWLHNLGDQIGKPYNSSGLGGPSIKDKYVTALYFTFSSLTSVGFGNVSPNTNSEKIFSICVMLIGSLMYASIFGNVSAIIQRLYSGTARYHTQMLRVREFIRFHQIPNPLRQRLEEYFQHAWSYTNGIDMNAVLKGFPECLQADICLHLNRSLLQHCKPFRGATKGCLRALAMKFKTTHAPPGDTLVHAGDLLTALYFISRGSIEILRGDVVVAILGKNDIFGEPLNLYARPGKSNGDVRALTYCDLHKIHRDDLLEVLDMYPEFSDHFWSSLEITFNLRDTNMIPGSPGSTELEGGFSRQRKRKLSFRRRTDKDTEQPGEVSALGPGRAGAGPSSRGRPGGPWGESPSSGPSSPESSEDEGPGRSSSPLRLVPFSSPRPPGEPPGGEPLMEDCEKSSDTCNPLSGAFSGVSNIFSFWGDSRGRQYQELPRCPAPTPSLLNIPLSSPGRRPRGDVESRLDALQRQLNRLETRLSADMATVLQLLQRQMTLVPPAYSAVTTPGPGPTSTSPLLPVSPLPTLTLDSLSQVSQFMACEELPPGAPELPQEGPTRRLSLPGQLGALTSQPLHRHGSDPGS
smiles,measurement,setting,value
CC[C@H]1[C@@H](O)[C@@H]2[C@H](CC[C@]3(C)[C@@H]([C@H](C)CCNC(=O)NS(=O)(=O)c4ccc(C)cc4)CC[C@@H]23)[C@@]2(C)CC[C@@H](O)[C@H](F)[C@@H]12,EC50,[1],18 nM
CC(C)Oc1cc(C(=O)O)cc2sc(O[C@@H]3CO[C@H]4[C@@H]3OC[C@H]4OCc3c(-c4ccccc4OC(F)(F)F)noc3C3CC3)nc12,EC50,[2],< 30 nM
O=C(O)c1ccc2c(c1)Oc1ccc(OCc3c(-c4ccccc4OC(F)(F)F)noc3C3CC3)nc1C1(CC1)C2,bioavailability,[3],71.3%
COc1cc(Cl)cc(N(CC23CCC(c4ccc(OC)c(C#N)c4)(CC2)CC3)C(=O)c2ccncc2C)c1,Emax,[4],28%
O=C(O)c1ccc(-c2nc(N3[C@@H]4CC[C@H]3C[C@@H](OCc3c(-c5c(Cl)cccc5Cl)noc3C3CC3)C4)no2)cc1F,EC50,[5],< 50 nM
O=C(O)c1ccc(-c2csc(N3[C@@H]4CC[C@H]3C[C@@H](OCc3c(-c5ccccc5OC(F)(F)F)noc3C3CC3)C4)n2)cc1C(F)(F)F,half-life,[6],150 min
Cc1cc(OCc2c(-c3c(Cl)cccc3Cl)noc2C2CC2)ccc1C1=NOC(c2cc(C(=O)O)ccn2)C1 (stereo not given),IC50,[7],> 30 µM
O=C(O)c1cccc(NC(=O)c2ccc(Oc3ccccc3)cc2)c1,EC50,[8],10 nM
CC(C)(C)c1ccc(C(=O)Nc2ccc3ccn(Cc4ccc(C(=O)O)cc4)c3c2)cc1,EC50,[9],3.5 µM
same,IC50,[10],2900 nM
Cc1cc(OCc2c(-c3c(Cl)cccc3Cl)noc2C2CC2)ccc1C1=NOC(c2cc(C(=O)O)nn2C(C)C)C1 (stereo not given),IC50,[7],> 30 µM
O=C(O)c1cccc(NC(=O)c2ccc(OCCCCc3ccccc3)cc2)c1,EC50,[8],26 nM
O=C(O)c1ccc2nc(N3C[C@@H]4C[C@H]3C[C@H]4OCc3c(-c4c(Cl)cccc4Cl)noc3C3CC3)sc2c1,Activity,[11],166%
same,Activity,[12],185%
O=C(O)c1ccc2nc(N3CCC(OCc4c(-c5c(Cl)cccc5Cl)noc4C4CC4)C4CC43)sc2c1 (stereo not given),Activity,[11],64%
same,Activity,[12],125%
C[C@H]1CC(OCc2c(-c3c(Cl)cccc3Cl)noc2C2CC2)C[C@H](C)N1c1nc2ccc(C(=O)O)cc2s1 (stereo not given in full),Activity,[11],100%
same,Activity,[12],88%
CS(=O)(=O)NC(=O)c1ccc(N2CCC3(CC2)CC(OCc2c(-c4ccccc4OC(F)(F)F)noc2C2CC2)CO3)nc1 (stereo not given),EC50,[13],26.9 nM
O=C(O)c1cc(F)c2nc(N3[C@@H]4CC[C@H]3C[C@@H](OCc3c(-c5c(Cl)cccc5Cl)noc3C3CC3)C4)sc2c1,EC50,[5],7.7 nM
O=C(O)c1ccc(N2C(=O)CCc3cc(OCc4c(-c5c(Cl)cccc5Cl)noc4C4CC4)ccc32)nc1,EC50,[14],20 nM
O=C(O)c1ccc(-c2nc(N3[C@@H]4CC[C@H]3C[C@@H](OCc3c(-c5c(Cl)cccc5Cl)noc3C3CC3)C4)no2)cc1,EC50,[5],< 50 nM
CC(C)Oc1cc(C(=O)NS(=O)(=O)N2CCCC2)cc2sc(O[C@@H]3CO[C@H]4[C@H]3OC[C@H]4OCc3c(-c4c(Cl)cccc4Cl)noc3C3CC3)nc12,EC50,[2],< 30 nM
Cc1cc(OCc2c(-c3c(Cl)cccc3Cl)noc2C2CC2)ccc1C1=NOC(c2ccc(C(=O)O)nc2)C1 (stereo not given),IC50,[7],> 30 µM
same,EC50,[15],5 nM
